Assay results as given in the supplement of paper PMC13380429.
± gives the standard deviation of the averaged measurements.

Tests used:
Details in all cases: 72 h
U2OS [1] = test: relative viability EC50 (midpoint between 100% and the lowest measured viability); higher = less toxic
Vero E6 [2] = test: as above
HepG2 [3] = test: as above
Caco-2 [4] = test: as above
Calu-3 [5] = test: as above
U2OS [6] = test: cell viability relative to DMSO; higher = less toxic
Vero E6 [7] = test: as above
HepG2 [8] = test: as above
Caco-2 [9] = test: as above
Calu-3 [10] = test: as above
U2OS [11] = test: drug sensitivity score (DSS) for viability; higher = more toxic; extreme values may be limits of the assay
Vero E6 [12] = test: as above
HepG2 [13] = test: as above
Caco-2 [14] = test: as above
Calu-3 [15] = test: as above

| SMILES | relative viability EC50 (U2OS [1]) [µM] | relative viability EC50 (Vero E6 [2]) [µM] | relative viability EC50 (HepG2 [3]) [µM] | relative viability EC50 (Caco-2 [4]) [µM] | relative viability EC50 (Calu-3 [5]) [µM] | cell viability (U2OS [6]; 1 nM) [%] | cell viability (U2OS [6]; 10 nM) [%] | cell viability (U2OS [6]; 100 nM) [%] | cell viability (U2OS [6]; 1000 nM) [%] | cell viability (U2OS [6]; 10000 nM) [%] | cell viability (Vero E6 [7]; 1 nM) [%] | cell viability (Vero E6 [7]; 10 nM) [%] | cell viability (Vero E6 [7]; 100 nM) [%] | cell viability (Vero E6 [7]; 1000 nM) [%] | cell viability (Vero E6 [7]; 10000 nM) [%] | cell viability (HepG2 [8]; 1 nM) [%] | cell viability (HepG2 [8]; 10 nM) [%] | cell viability (HepG2 [8]; 100 nM) [%] | cell viability (HepG2 [8]; 1000 nM) [%] | cell viability (HepG2 [8]; 10000 nM) [%] | cell viability (Caco-2 [9]; 1 nM) [%] | cell viability (Caco-2 [9]; 10 nM) [%] | cell viability (Caco-2 [9]; 100 nM) [%] | cell viability (Caco-2 [9]; 1000 nM) [%] | cell viability (Caco-2 [9]; 10000 nM) [%] | cell viability (Calu-3 [10]; 1 nM) [%] | cell viability (Calu-3 [10]; 10 nM) [%] | cell viability (Calu-3 [10]; 100 nM) [%] | cell viability (Calu-3 [10]; 1000 nM) [%] | cell viability (Calu-3 [10]; 10000 nM) [%] | drug sensitivity score (U2OS [11]) | drug sensitivity score (Vero E6 [12]) | drug sensitivity score (HepG2 [13]) | drug sensitivity score (Caco-2 [14]) | drug sensitivity score (Calu-3 [15]) |
| --- | --- | --- | --- | --- | --- | --- | --- | --- | --- | --- | --- | --- | --- | --- | --- | --- | --- | --- | --- | --- | --- | --- | --- | --- | --- | --- | --- | --- | --- | --- | --- | --- | --- | --- | --- |
| C[Se]C[C@H](N)C(=O)O [Se-methylselenocysteine] | > 10 | > 10 | > 10 | > 10 | > 10 | 92.4 | 102 | 95.5 | 99.7 | 97.7 | 104 | 100 | 99.2 | 102 | 101 | 101 | 101 | 104 | 93 | 108 | 94.3 | 99.1 | 97.2 | 102 | 91.4 | 108 | 113 | 98.1 | 109 | 96.4 | 0 | 0 | 0 | 0 | 0 |
| O=c1ccn([C@@H]2O[C@H](COP(=O)(O)OP(=O)(O)OP(=O)(O)O)[C@@H](O)[C@H]2O)c(=O)[nH]1 [INS316] | > 10 | > 10 | > 10 | > 10 | > 10 | 99.4 ± 5.7 | 95.9 ± 3.8 | 103 ± 7.8 | 96.3 ± 6.7 | 105 ± 1.8 | 98.6 ± 2.5 | 93.3 ± 11 | 98.2 ± 2.6 | 98.5 ± 4.2 | 99.1 ± 3.1 | 100 ± 1.2 | 107 ± 2 | 109 ± 10 | 105 ± 3 | 103 ± 5.7 | 102 ± 6 | 107 ± 18 | 109 ± 1.8 | 113 ± 26 | 93.5 ± 13 | 94.5 ± 3.1 | 95.8 ± 7.1 | 92.5 ± 1.9 | 100.8 ± 0.21 | 101 ± 7.7 | 0 | 0 | 0 | 0 | 0 |
| N#CC(c1ccccc1)(c1ccccc1)c1ccccc1Cl [TRAM-39] | > 10 | > 10 | > 10 | > 10 | > 10 | 101 | 96.5 | 95.7 | 97.3 | 94.3 | 103 | 97.8 | 97.8 | 95.2 | 98.5 | 105 | 102 | 93.7 | 92.7 | 103 | 94.3 | 93.2 | 90.8 | 96.9 | 92.6 | 93.8 | 93 | 107 | 106 | 92.9 | 0 | 0 | 0 | 0 | 0 |
| CC(=O)O[C@H]1C[C@H](O[C@H]2[C@@H](O)C[C@H](O[C@H]3[C@@H](O)C[C@H](O[C@H]4CC[C@@]5(C)[C@H](CC[C@@H]6[C@@H]5C[C@@H](O)[C@]5(C)[C@@H](C7=CC(=O)OC7)CC[C@]65O)C4)O[C@@H]3C)O[C@@H]2C)O[C@H](C)[C@H]1O[C@@H]1O[C@H](CO)[C@@H](O)[C@H](O)[C@H]1O [lanatoside-C] | 0.211 | 0.0458 | 0.396 | 0.116 | 0.248 | 101 | 97.3 | 87.4 | 3.4 | 6.7 | 92.5 | 92 | 23.4 | 0.8 | 0.9 | 99.4 | 97.7 | 83.3 | 30.9 | 5.9 | 102 | 99 | 66.4 | 17.6 | 18.4 | 107 | 95.1 | 80.7 | 30.6 | 18.7 | 19.5 | 27.8 | 15 | 19.5 | 15.2 |
| Clc1ccc(N2CCN(Cc3c[nH]c4ncccc34)CC2)cc1 | > 10 | > 10 | > 10 | > 10 | > 10 | 96.1 | 98.2 | 95.9 | 102 | 92.2 | 94.9 | 102 | 97.4 | 96.2 | 102 | 102 | 93.8 | 97.1 | 93.6 | 79.8 | 103 | 98.1 | 95.5 | 93.5 | 87 | 88.6 | 99.1 | 101 | 92.9 | 87.9 | 0 | 0 | 1.1 | 0.1 | 0 |
| CCCCNc1c(C(=O)OCC)c(C)nc2c1cnn2CC [tracazolate] | > 10 | > 10 | > 10 | > 10 | > 10 | 101 | 93.2 | 102 | 97.7 | 93.6 | 93 | 97.7 | 96.9 | 96.7 | 96.5 | 97.6 | 104 | 92.5 | 106 | 99.3 | 93.3 | 96.1 | 97.2 | 92.7 | 101 | 101 | 85.1 | 98.6 | 102 | 86.4 | 0 | 0 | 0 | 0 | 0.1 |
| Nc1ccn([C@H]2C[C@H](O)[C@@H](CO)O2)c(=O)n1 [torcitabine] | > 10 | > 10 | > 10 | > 10 | > 10 | 102 | 106 | 99.1 | 104 | 95.5 | 104 | 95.7 | 90.2 | 95.2 | 101 | 105 | 94.3 | 94.6 | 104 | 98.8 | 105 | 95 | 101 | 97.1 | 86.5 | 100 | 94.6 | 91.9 | 99.9 | 85.6 | 0 | 0 | 0 | 0.3 | 0 |
